Measured values reported in patent US20090074766A1, “Methods of inhibiting HIV-2 infection” (priority 2007, published 2009).
Read-outs that look alike come from different tables or passages of the source.

B1: PRO 140: humanized IgG4,κ anti-CCR5 monoclonal antibody, humanized version of murine mAb PA14 (antibody, chains of the INN, looked up, V domains shown)
VH: EVQLVESGGGLVKPGGSLRLSCAASGYTFSNYWIGWVRQAPGKGLEWIGDIYPGGNYIRNNEKFKDKTTLSADTSKNTAYLQMNSLKTEDTAVYYCGSSFGSNYVFAWFTYWGQGTLVTVSS
VL: DIVMTQSPLSLPVTPGEPASISCRSSQRLLSSYGHTYLHWYLQKPGQSPQLLIYEVSNRFSGVPDRFSGSGSGTDFTLKISRVEAEDVGVYYCSQSTHVPLTFGQGTKVEIK

Columns and labels:
[1] = biological target: HIV-1JR-FL envelope-mediated membrane fusion (HeLa-EnvJRFL and CEM NKR-CCR5 cells) (Homo sapiens, UniProt P51681); assay: cell-based; parameters: CI90: unit not given beside the values; conditions: for Mean Dose Reduction (2D7) / Mean Dose Reduction (Cpd in combination): 2D7 in combination with the labelled inhibitor, 1:1 molar ratio
Description: (§1) The HIV-1 RET assay has been described in detail previously (Litwin et al., 1996). Briefly, fluorescein octadecyl ester (F18; Molecular Probes, Eugene, Oreg.; 5 mg/ml in ethanol), was diluted 1:800 in DMEM labeling medium (DMEM; Invitrogen, Carlsbad, Calif.) with 10% fetal bovine serum (FBS; HyClone, Logan, Utah) and adjusted to an A506 of 0.34±10%. Octadecyl rhodamine B chloride (R18; Molecular Probes; 10 mg/ml in ethanol) was diluted 1:2050 in labeling medium and adjusted to an A565 of 0.52±10%. Both dyes were further diluted 2-fold by addition to cells in T75-cm^2 flasks. HeLa-EnvJRFL and CEM NKR-CCR5 cells were incubated overnight in F18- and R18-containing culture medium, respectively. The following day, medium from HeLa-EnvJRFL cells was removed and 10 ml of 0.5 mM EDTA was added and incubated at 37° C. for 5 min. EDTA was removed and the flask was returned to the incubator for another 5 min followed by striking of the flask to dislodge cells. […] Suspension CEM NKR-CCR5 cells were added directly to a separate 50-ml conical centrifuge tube. Both cell lines were centrifuged at 300×g for 5 min. The supernatant was discarded and cells were resuspended in 10 ml of PBS-/15% FBS. The centrifugation/wash step was repeated twice, after which the cells were counted and concentrations adjusted to 1.5×10^6 cells/ml. Ten μl of each cell type (15,000 cells) were seeded into wells of a 384-well plate. Inhibitor compounds were added immediately thereafter to bring the final well volume to 40 μl, and the plates were incubated for 4 h at 37° C. Compounds were tested individually and in combination at a fixed molar ratio or mass ratio over a range of serial dilutions. The plates were then read on a fluorescence plate reader (Victor^2, Perkin Elmer, Boston, Mass.) using the excitation/emission filter combinations shown in Table 6.
(§2) The “% RET” was calculated according to the following formula after subtraction of background (blank) readings: […]
(§3) The “% Inhibition” was calculated according to the following formula: […]
(§4) Fifty percent inhibition (IC50) values were determined by fitting the inhibition data with a non-linear, four-parameter, variable slope equation (GraphPad Prism, 4.02; GraphPad Software, San Diego, Calif.). Upper and lower inhibition values were constrained to 100% and 0%, respectively for curve fitting.
(§5) For testing, small molecule compounds were solubilized in dimethylsulfoxide (DMSO) to 10 mM and then diluted in DMSO to 200× the final concentration to be utilized in the antiviral assay. Serial dilutions of small molecules were conducted in DMSO. Subsequent dilutions were conducted in medium to achieve a final DMSO concentration in the assay of 0.5%. Peptides and mAbs were diluted in PBS in the absence of DMSO.
(§6) HeLa cells were engineered to express HIV-1 gp120/gp41 from the macrophage-tropic primary isolate JRFL as described (HeLa-EnvJRFL; Litwin et al., 1996). Briefly, the HIV-1LAI Env gene was excised from the plasmid pMA243 (Dragic et al., 1992) and the HIV-1JRFL Env gene was inserted. The HIV-1JRFL Env gene was amplified from the plasmid pUCFL112-1 (Koyanagi et al., 1987). The resulting plasmid, designated JR-FL-pMA243, was sequenced by standard methods and transfected into HeLa cells using lipofectin (Gibco BRL/Invitrogen, Carlsbad, Calif.). HeLa-EnvJRFL transfectants were selected in methotrexate (Sigma, St. Louis, Mo.) and cloned twice by limiting dilution. The transduced human T cell leukemia line CEM NKR-CCR5 cells were obtained from the NIH AIDS Research and Reference Program (Cat. No. 458).
(§7) The HIV-1 RET assay has been described in detail previously (Litwin et al., 1996). Briefly, fluorescein octadecyl ester (F18; Molecular Probes, Eugene, Oreg.; 5 mg/ml in ethanol), was diluted 1:800 in DMEM labeling medium (DMEM; Invitrogen, Carlsbad, Calif.) with 10% fetal bovine serum (FBS; HyClone, Logan, Utah) and adjusted to an A506 of 0.34±10%.

[2] = test system: HIV-1JR-FL envelope-mediated membrane fusion (HeLa-EnvJRFL and CEM NKR-CCR5 cells); assay: cell-based; parameters: CI90: unit not given beside the values
Description: as §1, §2, §3, §4, §5, §6, §7

[3] = biological target: T1, CCR5 (Homo sapiens, UniProt P51681); assay: Competition binding: inhibition of PRO 140-PE binding to CEM.NKR-CCR5 cells (flow cytometry)
T1 construct: host or cells: CEM.NKR-CCR5 (transduced human T cell leukemia line)
Description: Inhibition was assessed on the basis of both MFI (A) and percent cells gated (B).
Azide was added to block CCR5 internalization during the assay.

[4] = SCH-D (Drug 1) with TAK-779 (Drug 2), molar ratio 1:1
[5] = inhibitor tested individually, experiment depicted in FIG. 11B
[6] = PRO 140 in combination with the labelled inhibitor, 1:1 molar ratio
[7] = labelled 1st inhibitor with 2nd inhibitor UK-427,857, equimolar
[8] = molar ratio PRO 140 to labelled inhibitor 1:5
[9] = molar ratio PRO 140 to labelled inhibitor 5:1
[10] = inhibitor tested individually, experiment depicted in FIG. 11A
[11] = labelled 1st inhibitor with 2nd inhibitor PRO 140, equimolar, mean ± SD of 4-12 assays

Sequence of HIV-1JR-FL envelope-mediated membrane fusion (HeLa-EnvJRFL and CEM NKR-CCR5 cells) (Homo sapiens, UniProt P51681) (P51681 whole entry, the tested form may be a part): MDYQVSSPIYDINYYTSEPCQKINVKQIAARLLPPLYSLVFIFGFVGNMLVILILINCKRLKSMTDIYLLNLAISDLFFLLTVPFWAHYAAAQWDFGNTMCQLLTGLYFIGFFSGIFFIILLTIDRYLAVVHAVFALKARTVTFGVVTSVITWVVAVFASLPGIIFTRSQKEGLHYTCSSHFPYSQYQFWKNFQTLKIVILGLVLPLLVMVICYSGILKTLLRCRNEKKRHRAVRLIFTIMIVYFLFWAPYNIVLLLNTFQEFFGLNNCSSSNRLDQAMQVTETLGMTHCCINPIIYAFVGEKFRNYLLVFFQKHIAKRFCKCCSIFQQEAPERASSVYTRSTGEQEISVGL
T1 sequence (P51681 whole entry): as the sequence (P51681 whole entry, the tested form may be a part) above

| Molecule | Mean Dose Reduction (2D7) [1] | Mean Dose Reduction (Cpd in combination) [1] | IC90 [1, 5] [nM] | Mean Dose Reduction (Cpd in combination) [2, 6] | Mean Dose Reduction (PRO 140) [2, 6] | Mean Dose Reduction (Cpd. in combination) [2, 8] | Mean Dose Reduction (PRO 140) [2, 8] | Mean Dose Reduction (Cpd. in combination) [2, 9] | Mean Dose Reduction (PRO 140) [2, 9] | IC90 [1, 10] [nM] | further results |
| --- | --- | --- | --- | --- | --- | --- | --- | --- | --- | --- | --- |
| COC[C@@H](c1ccc(C(F)(F)F)cc1)N1CCN(C2(C)CCN(C(=O)c3c(C)ncnc3C)CC2)C[C@@H]1C [SCH-D, 1-[(4,6-dimethyl-5-pyrimidinyl)carbonyl]-4-[4-[2-methoxy-1(R)-4-(trifluoromethyl)phenyl]ethyl-3(S)-methyl-1-piperazinyl]-4-methylpiperidine] | 3.25 ± 0.56 | 4.04 ± 0.78 | 34 | 3.90 ± 0.71 | 4.21 ± 0.96 | 1.73 ± 0.19 | 9.95 ± 2.03 | 8.44 ± 1.27 | 1.92 ± 0.40 | – | Mean CI ± stdev [1, 4]: 1.12±0.32; Mean DR (Drug 1) [1, 4]: 1.48 ± 0.96; CI90 ([1]; SCH-D and UK-427,857 1:1, experiment depicted in FIG. 11B): 0.73; IC90 ([1]; read-out: IC90 of the combination, 1:1 fixed molar ratio combination of SCH-D and UK-427,857, FIG. 11B): 31 nM; IC50 ([2]; 1st inhibitor alone (Table 13)): 3.2 nM; IC90 ([2]; 1st inhibitor alone (Table 13)): 16 nM; CI50 ([2]; labelled 1st inhibitor with 2nd inhibitor TAK-779, equimolar): 1.3 ± 0.18; CI50 [2, 7]: 0.86 ± 0.03; CI90 [2, 7]: 0.75 ± 0.02; percent of cells gated for positive binding of PRO 140-PE ([3]; result in words (FIG. 12B)): little impact |
| Cc1nnc(C(C)C)n1C1CC2CCC(C1)N2CC[C@H](NC(=O)C1CCC(F)(F)CC1)c1ccccc1 (some centres unmarked) [UK-427,857] | – | – | 59 | 2.98 ± 0.65 | 4.16 ± 0.41 | 1.58 ± 0.17 | 11.31 ± 2.14 | 7.25 ± 2.19 | 2.00 ± 0.35 | 21 | IC90 ([1]; read-out: IC90 of the combination, 1:1 fixed molar ratio combination of PRO 140 and UK-427,857, FIG. 11A): 4.6 nM |
| COc1ccnc2[nH]cc(C(=O)C(=O)N3CCN(C(=O)c4ccccc4)C[C@H]3C)c12 [BMS-378806, (R)-N-(benzoyl)-3-methyl-N′-[(4-methoxy-7-azaindol-3-yl)-oxoacetyl]-piperazine] | – | – | – | 2.85 ± 0.76 | 1.64 ± 0.30 | 1.07 ± 0.31 | 3.64 ± 0.73 | 8.88 ± 4.16 | 1.14 ± 0.06 | – | Mean CI (Combination Index at IC50) [2, 6]: 1.21±0.21; Mean Combination Index (at IC50) ([2]; PRO 140 in combination with the labelled inhibitor, molar ratio PRO 140 to inhibitor 1:5): 1.55 ± 0.24; Mean Combination Index (at IC50) ([2]; PRO 140 in combination with the labelled inhibitor, molar ratio PRO 140 to inhibitor 5:1): 1.12 ± 0.10; CI90 [2, 11]: 1.1 ± 0.22 |
| B1 | 2.54 ± 0.13 | 1.87 ± 0.07 | – | – | – | – | – | – | – | 11 | IC50 [1, 10]: 2.9 nM; CI50 [1, 11]: 0.96; EC90 ([3]; based on percent cells gated, 5 nM PRO 140-PE): 17 nM |
